From paper PMC8640510 (Cell Death and Differentiation, 2021)

Columns and labels:
HCoV-OC43 = HCoV-OC43 viral infectivity assay; type: cell-based; settings: HCoV-OC43, HMC3 cells; combination with remdesivir; #79: 60 μM, #96: […] μM, #102: 25 μM
Method: HMC3 cells were seeded into black 96-well plates at 90% confluency. The next day, media was removed and replaced with complete media containing compounds/carrier 2 h prior to infection. After that, 5 μl of HCoV-OC43 virus was added to each well at an MOI of 0.005 for a final total volume of 100 μl/well. The plates were incubated at 33 °C. The viral suspension was removed after 12 h and drugs were added back to the cells to further incubate at 33 °C for 36 h. At 48 h post infection, cells were fixed with 4 % PFA in the media for 15 min. Residual PFA was quenched with a 50 mM NH4Cl and 100 mM NaCl solution. Cells were permeabilized and blocked in 5% FBS, 3% BSA, 0.05% Triton X-100 and 0.005% NaN3 in PBS for an hour. Anti-N antibody (Sigma 542-7D) was diluted in 4% FBS in PBS at 1:1000 dilution and was applied at 4 °C for 16 h. After several washing steps, cells were stained with AlexaFluor 594 and DAPI. For determination of cytotoxicity, HMC3 cells were seeded into opaque white wall 96-well plates. The following day, media was removed, replaced with media containing compounds/carrier and incubated for 48 h. After 48 h, cell viability was determined using alamarBlue™ Cell Viability Reagent using an Infinite 200 PRO microplate reader (Tecan).
Plates were scanned on a Citation 5 Imaging Multi-Mode Reader (BioTek). Gen5 software (version 3.10) was used for both image acquisition and analysis. A total number of 16 images/well were collected at 4x magnification to span the entire well. DAPI channel was used to build primary masks for the nucleus. Secondary masks were built within a 15 μm ring around the primary nuclear mask. Infection efficiencies were calculated from the ratio of the total fluorescence intensity within the secondary mask and the total area of the secondary mask for each well. Microscope images were prepared for publication using ImageJ (version 1.53i).

SARS-CoV-2 = SARS-CoV-2 viral infectivity assay; type: cell-based; settings: A549+ACE2 cells; for direct antiviral effect on SARS-CoV-2 on their own: 72 h post infection, compound alone; for synergy with remdesivir, SARS-CoV-2: combination with remdesivir, #79: 60 μM, #96: […] μM, #102: 25 μM
[1] = clinical studies in Japan, gastric diseases; cited from earlier work

| Compound | lowering of the EC50 of remdesivir (HCoV-OC43) | direct antiviral effect on SARS-CoV-2 on their own (SARS-CoV-2) | synergy with remdesivir, SARS-CoV-2 (SARS-CoV-2) | tolerability in humans [1] |
| --- | --- | --- | --- | --- |
| O=C(NCc1ccc(F)cc1)C1C(=O)N(O)C(=O)c2cc(C(F)(F)F)ccc21 (stereo not shown) [#79, 7-trifluoromethyl-N-(4-fluorobenzyl)−2-hydroxy-1,3-dioxo-4H-isoquinoline-4-carboxamide] | ~ 5 fold | no direct antiviral effect was detected | synergized with remdesivir |  |
| CC(C)=CCc1c(O)ccc(C(=O)/C=C/c2ccc(O)cc2)c1O [#96, Isobavachalcone] | ~ 5 fold | no direct antiviral effect was detected | synergized with remdesivir |  |
| CC(C)=CCOc1ccc(/C=C/C(=O)c2ccc(OCC=C(C)C)cc2OCC(=O)O)cc1 [#102, Sofalcone, reference compound] | ~ 5 fold | no direct antiviral effect was detected | synergized with remdesivir | well tolerated by humans |
